Data from patent US20030096020A1, “Novel herbal composition for the management of bronchial asthma and a process of manufacturing the same” (priority 2001, published 2003).

System: mast cells
Assay: Active anaphylaxis method to evaluate mast cell count
Assay type: in vivo, rat
Details: sensitized rats

## C[C@]12C=CC(=O)C=C1CC[C@@H]1[C@@H]2[C@@H](O)C[C@@]2(C)[C@H]1CC[C@]2(O)C(=O)CO [Standard, Prednisolone]
No treatment day 14 to 21, 21st day sacrifice, central zone
  Degranulation (% mean +/- SEM) of mast cells, 21st day sacrifice, central zone: 29.4 ± 7.2 %
No treatment day 14 to 21, 21st day sacrifice, peripheral zone
  Degranulation (% mean +/- SEM) of mast cells, 21st day sacrifice, peripheral zone: 37.51 ± 8.3 %
Oral treatment day 5 to 13, 13th day sacrifice, central zone
  Degranulation (% mean +/- SEM) of mast cells, 13th day sacrifice, central zone: 8.4 ± 2.0 %
Oral treatment day 5 to 13, 13th day sacrifice, peripheral zone
  Degranulation (% mean +/- SEM) of mast cells, 13th day sacrifice, peripheral zone: 8.7 ± 1.621 %
